Test results published in ChEMBL document CHEMBL3046368, “Synthesis of benzothiazole derivatives and their biological evaluation as anticancer agents” (2012).
Active and inactive are the calls of the source. No cut-off for these calls is given here.

What was measured:
[1] = Cytotoxicity against Homo sapiens (human) colon cancer cells assessed as cell growth at 10^-5 M after 48 hr by SRB assay relative to control; assay type: functional; conditions: Cancer cell lines, read-out: Activity
[2] = Cytotoxicity against Homo sapiens (human) ovarian cancer cells assessed as cell growth at 10^-5 M after 48 hr by SRB assay relative to control; assay type: functional; conditions: Cancer cell lines, read-out: Activity
[3] = Cytotoxicity against Homo sapiens (human) leukemia cells assessed as cell growth at 10^-5 M after 48 hr by SRB assay relative to control; assay type: functional; conditions: read-out: Activity
[4] = target: T1, Ubiquitin-like modifier-activating enzyme 1 (Homo sapiens) (UniProt P22314); test: Inhibition of ubiquitin displacement on His6-tagged E2 enzyme from His6-tagged UBA1 (unknown origin) at 10 uM after 1.5 hr by SDS-PAGE analysis
T1 sequence (whole entry): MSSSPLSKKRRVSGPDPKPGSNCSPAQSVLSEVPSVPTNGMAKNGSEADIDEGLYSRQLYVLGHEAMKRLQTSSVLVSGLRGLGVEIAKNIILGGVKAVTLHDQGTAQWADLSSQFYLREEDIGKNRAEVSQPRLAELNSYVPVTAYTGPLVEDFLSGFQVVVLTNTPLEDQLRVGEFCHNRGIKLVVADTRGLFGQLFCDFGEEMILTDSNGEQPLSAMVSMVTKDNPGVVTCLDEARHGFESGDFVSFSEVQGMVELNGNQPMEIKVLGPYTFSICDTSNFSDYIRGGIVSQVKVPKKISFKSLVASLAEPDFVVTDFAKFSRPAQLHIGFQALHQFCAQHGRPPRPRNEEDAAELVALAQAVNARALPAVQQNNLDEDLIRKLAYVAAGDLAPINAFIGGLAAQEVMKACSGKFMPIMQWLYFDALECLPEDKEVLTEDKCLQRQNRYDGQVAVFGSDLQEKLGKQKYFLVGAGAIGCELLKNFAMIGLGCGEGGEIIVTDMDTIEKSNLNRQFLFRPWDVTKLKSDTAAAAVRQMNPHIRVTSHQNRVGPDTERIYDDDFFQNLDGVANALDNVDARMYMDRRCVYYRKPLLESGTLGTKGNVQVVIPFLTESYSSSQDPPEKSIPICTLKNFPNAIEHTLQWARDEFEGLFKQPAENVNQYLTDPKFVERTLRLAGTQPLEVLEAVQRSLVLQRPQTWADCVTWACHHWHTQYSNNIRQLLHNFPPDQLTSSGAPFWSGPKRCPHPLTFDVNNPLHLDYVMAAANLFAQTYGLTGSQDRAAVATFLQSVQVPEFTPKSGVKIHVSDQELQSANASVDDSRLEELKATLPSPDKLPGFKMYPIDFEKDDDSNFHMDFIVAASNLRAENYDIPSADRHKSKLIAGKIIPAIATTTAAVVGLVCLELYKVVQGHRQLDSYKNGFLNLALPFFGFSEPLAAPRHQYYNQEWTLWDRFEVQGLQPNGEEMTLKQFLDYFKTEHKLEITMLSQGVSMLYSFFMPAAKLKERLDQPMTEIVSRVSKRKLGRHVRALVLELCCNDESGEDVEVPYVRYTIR

[5] = Cytotoxicity against Homo sapiens (human) NSCLC cells assessed as cell growth at 10^-5 M after 48 hr by SRB assay relative to control; assay type: functional; conditions: read-out: Activity
[6] = Cytotoxicity against Homo sapiens (human) prostate cancer cells assessed as cell growth at 10^-5 M after 48 hr by SRB assay relative to control; assay type: functional; conditions: Cancer cell lines, read-out: Activity
[7] = Cytotoxicity against Homo sapiens (human) melanoma cells assessed as cell growth at 10^-5 M after 48 hr by SRB assay relative to control; assay type: functional; conditions: read-out: Activity
[8] = Cytotoxicity against Homo sapiens (human) renal cancer cells assessed as cell growth at 10^-5 M after 48 hr by SRB assay relative to control; assay type: functional; conditions: Cancer cell lines, read-out: Activity
[9] = Cytotoxicity against Homo sapiens (human) CNSC cells assessed as cell growth at 10^-5 M after 48 hr by SRB assay relative to control; assay type: functional; conditions: read-out: Activity
[10] = Cytotoxicity against Homo sapiens (human) breast cancer cells assessed as cell growth at 10^-5 M after 48 hr by SRB assay relative to control; assay type: functional; conditions: Cancer cell lines, read-out: Activity
[11] = system: RPMI-8226; test: Cytotoxicity against Homo sapiens (human) RPMI8226 cells after 48 hr by SRB assay; assay type: functional; conditions: RPMI-8226, 48 h
[12] = system: MCF7; test: Cytotoxicity against Homo sapiens (human) MCF7 cells after 48 hr by SRB assay; assay type: functional; conditions: MCF7, 48 h
[13] = system: SF-268; test: Cytotoxicity against Homo sapiens (human) SF268 cells after 48 hr by SRB assay; assay type: functional; conditions: SF-268, 48 h
[14] = system: HOP-62; test: Cytotoxicity against Homo sapiens (human) HOP62 cells after 48 hr by SRB assay; assay type: functional; conditions: HOP-62, 48 h
[15] = system: SN12C; test: Cytotoxicity against Homo sapiens (human) SN12C cells after 48 hr by SRB assay; assay type: functional
[16] = system: COLO 205; test: Cytotoxicity against Homo sapiens (human) COLO205 cells after 48 hr by SRB assay; assay type: functional; conditions: COLO 205, 48 h
[17] = system: A498; test: Cytotoxicity against Homo sapiens (human) A498 cells after 48 hr by SRB assay; assay type: functional; conditions: A498, 48 h
[18] = system: SNB-75; test: Cytotoxicity against Homo sapiens (human) SNB75 cells after 48 hr by SRB assay; assay type: functional; conditions: SNB-75, 48 h
[19] = system: SF-539; test: Cytotoxicity against Homo sapiens (human) SF539 cells after 48 hr by SRB assay; assay type: functional; conditions: SF-539, 48 h
[20] = system: OVCAR-3; test: Cytotoxicity against Homo sapiens (human) OVCAR3 cells after 48 hr by SRB assay; assay type: functional; conditions: OVCAR-3, 48 h

O=C(Nc1nc2ccc(OC(F)(F)F)cc2s1)Nc1c(F)cccc1F
growth at 10 µM [1]: 91.8% | growth at 10 µM [2]: 90.2% | growth at 10 µM [3]: 64.4% | inhibition [4]: inactive | growth at 10 µM [5]: 77.6% | growth at 10 µM [6]: 83.8% | growth at 10 µM [7]: 89.6% | growth at 10 µM [8]: 89.4% | growth at 10 µM [9]: 96% | growth at 10 µM [10]: 89.5%

COc1ccc2nc(NC(=O)c3ccc(NC(C)=O)cc3)sc2c1
inhibition [4]: inactive

COc1ccc2nc(NC(=O)Nc3ccc(C#N)cc3)sc2c1
inhibition [4]: inactive

COc1ccc(NC(=O)Nc2nc3ccc(OC(F)(F)F)cc3s2)cc1
growth at 10 µM [1]: 101% | growth at 10 µM [2]: 97.5% | growth at 10 µM [3]: 87% | inhibition [4]: inactive | growth at 10 µM [5]: 95.8% | growth at 10 µM [6]: 95.3% | growth at 10 µM [7]: 104% | growth at 10 µM [8]: 99.4% | growth at 10 µM [9]: 103% | growth at 10 µM [10]: 97.8%

COc1ccc(NC(=O)Nc2nc3ccc(OC)cc3s2)cc1
inhibition [4]: inactive

O=C(Nc1nc2ccc(OC(F)(F)F)cc2s1)c1c(F)cccc1F
inhibition [4]: inactive

COc1ccc(C(=O)Nc2nc3ccc(OC)cc3s2)cc1
inhibition [4]: inactive

N#Cc1ccc(C(=O)Nc2nc3ccc(OC(F)(F)F)cc3s2)cc1
inhibition [4]: inactive

O=c1[nH]cc(F)c(=O)[nH]1 [FLUOROURACIL]
GI50 [11]: 44.7 nM | GI50 [12]: 79.4 nM | GI50 [13]: 1580 nM | GI50 [14]: 398 nM | GI50 [15]: 501 nM | GI50 [16]: 158 nM | GI50 [17]: 398 nM | GI50 [18]: 79400 nM | GI50 [19]: 63.1 nM | GI50 [20]: 15.8 nM

COc1ccc2nc(NC(=O)Nc3ccc(F)cc3)sc2c1
inhibition [4]: inactive

O=C(Nc1nc2ccc(OC(F)(F)F)cc2s1)c1ccc(F)cc1
inhibition [4]: inactive

COc1ccc2nc(NC(=O)c3c(F)cccc3F)sc2c1
inhibition [4]: inactive

COc1ccc(C(=O)Nc2nc3ccc(OC(F)(F)F)cc3s2)cc1
inhibition [4]: inactive

COc1ccc2nc(NC(=O)c3ccc(C#N)cc3)sc2c1
inhibition [4]: inactive

COc1ccc2nc(NC(=O)Nc3c(F)cccc3F)sc2c1
growth at 10 µM [1]: 107% | growth at 10 µM [2]: 108% | growth at 10 µM [3]: 91.2% | inhibition [4]: inactive | growth at 10 µM [5]: 99.2% | growth at 10 µM [6]: 100% | growth at 10 µM [7]: 102% | growth at 10 µM [8]: 97.9% | growth at 10 µM [9]: 104% | growth at 10 µM [10]: 107%

COc1ccc2nc(NC(=O)c3ccc(F)cc3)sc2c1
inhibition [4]: inactive

CC(=O)Nc1ccc(C(=O)Nc2nc3ccc(OC(F)(F)F)cc3s2)cc1
inhibition [4]: inactive
